This is an account of results in PubChem BioAssay (NCI).

Among the test systems are HCC-2998 colon; SK-OV-3 ovarian; UO-31 renal; NCI-H460 lung; SF-268 CNS; UACC-62 melanoma; SNB-75 CNS; DU-145 prostate; SN12C renal; HT29 colon.
Common to all, as to assay: NCI anticancer screen, dose series, 48 h

Molecules are shown by their SMILES.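 Values below derive from 48-hour exposures of cells grown in 96-well plates, with endpoints linearly interpolated between the two concentrations bracketing the appropriate inhibition level. The concentration for 50% growth inhibition is given as GI50. Definition used: TGI = concentration required for complete inhibition of growth.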

Regarding `O=C1C(Cl)=C(NCCCN(CCCNC2=C(Cl)C(=O)c3ccccc3C2=O)C2=C(Cl)C(=O)c3ccccc3C2=O)C(=O)c2ccccc21`, the GI50 is 2.45 µM with HCC-2998 colon; 18.4 µM in the assay with SK-OV-3 ovarian; 1.25 µM with UO-31 renal; 3.02 µM in the assay on NCI-H460 lung; 2.76 µM in the assay with SF-268 CNS; 1.98 µM in the assay on UACC-62 melanoma. In addition, the GI50 is 20.6 µM in the assay on SNB-75 CNS, 1.68 µM in the assay with DU-145 prostate and 1.51 µM with SN12C renal. In addition, the TGI in the assay on HCC-2998 colon was 6.37 µM; in the assay on SK-OV-3 ovarian it was 37.9 µM; in the assay on UO-31 renal, 5.93 µM; in the assay on NCI-H460 lung, over 100 µM; in the assay on SF-268 CNS, 18.8 µM; in the assay on UACC-62 melanoma it was 4.69 µM. For the same molecule, the TGI in the assay on SNB-75 CNS was 39.3 µM; in the assay on DU-145 prostate, 3.06 µM; in the assay with SN12C renal, 3.51 µM.
Consider `CN(C)c1ccc2[nH]c3c(C(N)=O)cc(=O)c(=O)c=3oc2c1`, for which the GI50 in the assay on HCC-2998 colon is 4.9 µM; with SK-OV-3 ovarian, 3.54 µM; with NCI-H460 lung, 2.57 µM; with HT29 colon it was 3.66 µM; in the assay with SF-268 CNS it was 3.04 µM; with UACC-62 melanoma, 1.74 µM. Also, the values for the GI50 in the assay on SNB-75 CNS, in the assay with DU-145 prostate and in the assay with SN12C renal were 2.5 µM, 4.6 µM and 1.95 µM, respectively. The TGI with HCC-2998 colon is over 100 µM; with SK-OV-3 ovarian, over 100 µM; in the assay with NCI-H460 lung, over 100 µM; in the assay with HT29 colon, over 100 µM; in the assay on SF-268 CNS, over 100 µM; in the assay on UACC-62 melanoma it was 5.32 µM. Moreover, the TGI with SNB-75 CNS was 9.19 µM; in the assay on DU-145 prostate, over 100 µM; in the assay with SN12C renal, 7.23 µM.
In the case of `CCOCCOCCOCCOCCOCCOCCOCCOCCOCCO` (tested in a mixture with another compound), the GI50 with HCC-2998 colon is 1.65 µM; with SK-OV-3 ovarian it was 3.91 µM; with UO-31 renal, 1.58 µM; in the assay on NCI-H460 lung, 1.2 µM; in the assay on HT29 colon, 1.16 µM; in the assay on SF-268 CNS it was 1.61 µM. For the same molecule, the figures for the GI50 in the assay on SNB-75 CNS and in the assay on DU-145 prostate were 0.728 µM and 2.6 µM, respectively. Moreover, the TGI with HCC-2998 colon came out at 6.25 µM; in the assay on SK-OV-3 ovarian it was 13.4 µM; with UO-31 renal, 18.7 µM; with NCI-H460 lung, 6.82 µM; in the assay with HT29 colon it was 4.36 µM; in the assay on SF-268 CNS, 20.8 µM. For the same molecule, the figures for the TGI in the assay on SNB-75 CNS and in the assay on DU-145 prostate were 5.34 µM and 15.2 µM, respectively.
For `O=C1/C(=C/c2ccc(C(F)(F)F)cc2)COc2ccc(O)c(O)c21`, the GI50 was 1.7 µM with HCC-2998 colon; 2.89 µM in the assay with SK-OV-3 ovarian; 0.633 µM in the assay on UO-31 renal; 1.85 µM in the assay with NCI-H460 lung; 1.67 µM with SF-268 CNS; 1.48 µM in the assay with UACC-62 melanoma. Moreover, the GI50 with SNB-75 CNS was 1.39 µM; with DU-145 prostate, 1.6 µM; with SN12C renal, 1.15 µM. For the same molecule, the TGI came to 3.16 µM in the assay with HCC-2998 colon; 10.8 µM in the assay with SK-OV-3 ovarian; 1.95 µM with UO-31 renal; 3.9 µM in the assay with NCI-H460 lung; 3.83 µM with SF-268 CNS; 2.87 µM with UACC-62 melanoma. Further, the TGI was determined as 3.02 µM in the assay on SNB-75 CNS, 3.19 µM in the assay with DU-145 prostate and 2.5 µM in the assay on SN12C renal.
Consider `O=C1Cc2cc(CCN3CCNCC3)c(Cl)cc2N1`, for which the GI50 in the assay with HCC-2998 colon is 46.6 µM; with SK-OV-3 ovarian, over 100 µM; with NCI-H460 lung it was 22.9 µM; in the assay on HT29 colon, over 100 µM; with SF-268 CNS, 12.7 µM; in the assay with UACC-62 melanoma it was 6.54 µM. Besides, the GI50 with SNB-75 CNS is 15.5 µM; in the assay with DU-145 prostate it was 19.9 µM; in the assay with SN12C renal it was 6 µM. In addition, the TGI with HCC-2998 colon, in the assay on SK-OV-3 ovarian, in the assay with NCI-H460 lung, in the assay on HT29 colon, with SF-268 CNS and in the assay with UACC-62 melanoma was over 100 µM each time. Further, the TGI with SNB-75 CNS is 75.4 µM; with DU-145 prostate, over 100 µM; in the assay with SN12C renal it was over 100 µM.
On to `Fc1ccc(Nc2nc(Nc3ccc(-c4nc5ccccc5[nH]4)cc3)c3cn[nH]c3n2)cc1`, for which the GI50 with HCC-2998 colon is 1.57 µM; in the assay with SK-OV-3 ovarian it was 5.03 µM; in the assay on UO-31 renal it was 1.62 µM; with NCI-H460 lung it was 1.99 µM; in the assay on HT29 colon, 1.93 µM; in the assay with SF-268 CNS, 2.11 µM. Besides, the GI50 in the assay with SNB-75 CNS was 1.35 µM; with DU-145 prostate, 1.87 µM; in the assay with SN12C renal, 1.99 µM. Besides, the TGI in the assay with HCC-2998 colon came out at 3.05 µM; in the assay on SK-OV-3 ovarian, 17.5 µM; in the assay on UO-31 renal it was 4.32 µM; in the assay on NCI-H460 lung, 3.97 µM; with HT29 colon, 4 µM; with SF-268 CNS it was 5.4 µM. Also, the TGI in the assay with SNB-75 CNS is 3.57 µM; with DU-145 prostate it was 3.75 µM; in the assay with SN12C renal, 4.47 µM.
As to `COc1ccc(/C=C/c2ccnc3ccccc23)cc1OC`, the TGI in the assay with HCC-2998 colon was over 100 µM; in the assay on SK-OV-3 ovarian, 92.8 µM; in the assay on UO-31 renal, 0.478 µM; with NCI-H460 lung it was 28.5 µM; in the assay with HT29 colon, 27.4 µM; in the assay on SF-268 CNS it was 27.8 µM. For the same molecule, the TGI was 29.4 µM with UACC-62 melanoma, 26.6 µM in the assay with DU-145 prostate and 62.1 µM with SN12C renal.
With `CC1=C(C(=O)Nc2ccc(Cl)c(Cl)c2)C(c2cccc(Cl)c2)NC(=S)N1` (configuration not stated), the GI50 with SK-OV-3 ovarian is 15.2 µM; with UO-31 renal it was 11.1 µM; in the assay on NCI-H460 lung, 24.3 µM; in the assay on HT29 colon it was 16.1 µM; in the assay on SF-268 CNS, 16.5 µM; in the assay with UACC-62 melanoma, 8.1 µM. Also, the GI50 with SNB-75 CNS was 30.4 µM; in the assay on DU-145 prostate it was 14.4 µM; in the assay with SN12C renal, 8.4 µM. Further, the TGI was 33 µM in the assay with SK-OV-3 ovarian; 24.9 µM in the assay with UO-31 renal; over 50 µM with NCI-H460 lung; over 50 µM with HT29 colon; 41.8 µM in the assay on SF-268 CNS; 18.1 µM in the assay on UACC-62 melanoma. Moreover, the TGI is over 50 µM in the assay on SNB-75 CNS, 44 µM in the assay with DU-145 prostate and 18.3 µM with SN12C renal.
For the molecule `O=C1C=CC(=O)c2c1nc(CBr)[nH]c2=O`, the TGI with HCC-2998 colon, in the assay on SK-OV-3 ovarian, with UO-31 renal, in the assay on HT29 colon, in the assay on SF-268 CNS and with UACC-62 melanoma was over 100 µM each time. Also, the TGI with SNB-75 CNS, with DU-145 prostate and with SN12C renal was over 100 µM in each case.
